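Each compound was tested at five concentrations against cells in 96-well plates for 48 hours. TGI marks complete inhibition of growth.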
How the values were obtained:
Assay in all cases: inhibition of tumour cell growth, NCI panel, 48 h
786-0 renal = test system: 786-0 renal
A549 NSCLC = test system: A549 NSCLC
ACHN renal = test system: ACHN renal
BT-549 breast = test system: BT-549 breast
CAKI-1 renal = test system: CAKI-1 renal
CCRF-CEM leukemia = test system: CCRF-CEM leukemia
COLO 205 colon = test system: COLO 205 colon
EKVX NSCLC = test system: EKVX NSCLC
HCC-2998 colon = test system: HCC-2998 colon
HCT-116 colon = test system: HCT-116 colon
HCT-15 colon = test system: HCT-15 colon
HOP-62 NSCLC = test system: HOP-62 NSCLC
HS 578T breast = test system: HS 578T breast
HT29 colon = test system: HT29 colon
IGROV1 ovarian = test system: IGROV1 ovarian
K-562 leukemia = test system: K-562 leukemia
KM12 colon = test system: KM12 colon
LOX IMVI melanoma = test system: LOX IMVI melanoma
M14 melanoma = test system: M14 melanoma
MALME-3M melanoma = test system: MALME-3M melanoma
MCF7 breast = test system: MCF7 breast
MDA-MB-231 breast = test system: MDA-MB-231 breast
MDA-MB-435 = test system: MDA-MB-435
MDA-N = test system: MDA-N
MOLT-4 leukemia = test system: MOLT-4 leukemia
NCI-H226 lung = test system: NCI-H226 lung
NCI-H23 lung = test system: NCI-H23 lung
NCI-H460 lung = test system: NCI-H460 lung
NCI-H522 lung = test system: NCI-H522 lung
NCI/ADR-RES ovarian = test system: NCI/ADR-RES ovarian
OVCAR-3 ovarian = test system: OVCAR-3 ovarian
OVCAR-4 ovarian = test system: OVCAR-4 ovarian
OVCAR-5 ovarian = test system: OVCAR-5 ovarian
OVCAR-8 ovarian = test system: OVCAR-8 ovarian
PC-3 prostate = test system: PC-3 prostate
RPMI-8226 leukemia = test system: RPMI-8226 leukemia
SF-268 CNS = test system: SF-268 CNS
SF-295 CNS = test system: SF-295 CNS
SF-539 CNS = test system: SF-539 CNS
SK-MEL-2 melanoma = test system: SK-MEL-2 melanoma
SK-MEL-28 melanoma = test system: SK-MEL-28 melanoma
SK-MEL-5 melanoma = test system: SK-MEL-5 melanoma
SK-OV-3 ovarian = test system: SK-OV-3 ovarian
SN12C renal = test system: SN12C renal
SNB-19 CNS = test system: SNB-19 CNS
SNB-75 CNS = test system: SNB-75 CNS
SR leukemia = test system: SR leukemia
SW-620 colon = test system: SW-620 colon
T-47D breast = test system: T-47D breast
TK-10 renal = test system: TK-10 renal
U251 CNS = test system: U251 CNS
UACC-257 melanoma = test system: UACC-257 melanoma
UACC-62 melanoma = test system: UACC-62 melanoma
UO-31 renal = test system: UO-31 renal
DU-145 prostate = test system: DU-145 prostate
HL-60(TB) leukemia = test system: HL-60(TB) leukemia
RXF 393 renal = test system: RXF 393 renal
HOP-92 NSCLC = test system: HOP-92 NSCLC

`Cc1cc(=O)oc2c3c(ccc12)OC(c1ccc(Br)cc1)CC3=O` (stereo not drawn) showed a TGI (786-0 renal) of 25.5 µM, a TGI (A549 NSCLC) of 34.8 µM and a TGI (ACHN renal) of 29.4 µM. For the same compound, the TGI (BT-549 breast) was 11.4 µM, the TGI (CAKI-1 renal) was 43.8 µM and the TGI (CCRF-CEM leukemia) was 9.11 µM. The TGI (COLO 205 colon) was 30.5 µM, the TGI (EKVX NSCLC) was 31.8 µM and the TGI (HCC-2998 colon) was 59.2 µM. It also gave a TGI (HCT-116 colon) of 23.8 µM, a TGI (HCT-15 colon) of 34.2 µM and a TGI (HOP-62 NSCLC) of 21.8 µM. For the same compound, the TGI (HS 578T breast) was 38.2 µM, the TGI (HT29 colon) was 32 µM and the TGI (IGROV1 ovarian) was 32.5 µM. The TGI (K-562 leukemia) was 19 µM, the TGI (KM12 colon) was 33.1 µM and the TGI (LOX IMVI melanoma) was 14.6 µM. The TGI (M14 melanoma) was 31.6 µM, the TGI (MALME-3M melanoma) was 71.3 µM and the TGI (MCF7 breast) was 12.7 µM. For the same compound, the TGI (MDA-MB-231 breast) was 37.8 µM, the TGI (MDA-MB-435) was 16.9 µM and the TGI (MDA-N) was > 100 µM. For the same compound, the TGI (MOLT-4 leukemia) was 4.91 µM, the TGI (NCI-H226 lung) was 38.2 µM and the TGI (NCI-H23 lung) was 27.5 µM. The TGI (NCI-H460 lung) was 36.8 µM, the TGI (NCI-H522 lung) was 18 µM and the TGI (NCI/ADR-RES ovarian) was > 100 µM. The TGI (OVCAR-3 ovarian) was 24.3 µM, the TGI (OVCAR-4 ovarian) was > 100 µM and the TGI (OVCAR-5 ovarian) was 31.4 µM. The TGI (OVCAR-8 ovarian) was 33.7 µM, the TGI (PC-3 prostate) was 47.9 µM and the TGI (RPMI-8226 leukemia) was > 100 µM. For the same compound, the TGI (SF-268 CNS) was 32.1 µM, the TGI (SF-295 CNS) was 23.9 µM and the TGI (SF-539 CNS) was 27.1 µM. It also gave a TGI (SK-MEL-2 melanoma) of 33.5 µM, a TGI (SK-MEL-28 melanoma) of 21.3 µM and a TGI (SK-MEL-5 melanoma) of 24.5 µM. The TGI (SK-OV-3 ovarian) was 30.3 µM, the TGI (SN12C renal) was > 100 µM and the TGI (SNB-19 CNS) was 20.5 µM. For the same compound, the TGI (SNB-75 CNS) was 18.6 µM, the TGI (SR leukemia) was > 100 µM and the TGI (SW-620 colon) was 23.9 µM. The TGI (T-47D breast) was 1.18 µM, the TGI (TK-10 renal) was 27.1 µM and the TGI (U251 CNS) was 18.3 µM. It also gave a TGI (UACC-257 melanoma) of 27.9 µM, a TGI (UACC-62 melanoma) of 23.7 µM and a TGI (UO-31 renal) of 21.9 µM.
For `Cc1cc(=O)oc2c(C)c3oc(CBr)c(Br)c3cc12`, the TGI (786-0 renal) was 29.7 µM, the TGI (A549 NSCLC) was 37.2 µM and the TGI (ACHN renal) was > 100 µM. The TGI (BT-549 breast) was > 100 µM, the TGI (CAKI-1 renal) was 31.6 µM and the TGI (CCRF-CEM leukemia) was > 100 µM. For the same compound, the TGI (COLO 205 colon) was > 100 µM, the TGI (DU-145 prostate) was > 100 µM and the TGI (EKVX NSCLC) was > 100 µM. For the same compound, the TGI (HCC-2998 colon) was 70.7 µM, the TGI (HCT-116 colon) was 67.9 µM and the TGI (HCT-15 colon) was > 100 µM. For the same compound, the TGI (HL-60(TB) leukemia) was > 100 µM, the TGI (HOP-62 NSCLC) was > 100 µM and the TGI (HS 578T breast) was > 100 µM. For the same compound, the TGI (HT29 colon) was > 100 µM, the TGI (IGROV1 ovarian) was 36.1 µM and the TGI (K-562 leukemia) was 66.8 µM. The TGI (KM12 colon) was 83.8 µM, the TGI (LOX IMVI melanoma) was 28.8 µM and the TGI (M14 melanoma) was 50.3 µM. For the same compound, the TGI (MCF7 breast) was > 100 µM, the TGI (MDA-MB-231 breast) was > 100 µM and the TGI (MDA-MB-435) was > 100 µM. The TGI (MDA-N) was > 100 µM, the TGI (MOLT-4 leukemia) was > 100 µM and the TGI (NCI-H226 lung) was > 100 µM. The TGI (NCI-H23 lung) was > 100 µM, the TGI (NCI-H460 lung) was 49 µM and the TGI (NCI-H522 lung) was 30.2 µM. For the same compound, the TGI (NCI/ADR-RES ovarian) was 95.7 µM, the TGI (OVCAR-3 ovarian) was > 100 µM and the TGI (OVCAR-4 ovarian) was 88.1 µM. For the same compound, the TGI (OVCAR-5 ovarian) was 80 µM, the TGI (OVCAR-8 ovarian) was 97.7 µM and the TGI (PC-3 prostate) was > 100 µM. For the same compound, the TGI (RPMI-8226 leukemia) was 64.6 µM, the TGI (RXF 393 renal) was 41.6 µM and the TGI (SF-268 CNS) was 78.6 µM. The TGI (SF-295 CNS) was 42.5 µM, the TGI (SF-539 CNS) was > 100 µM and the TGI (SK-MEL-2 melanoma) was > 100 µM. The TGI (SK-MEL-28 melanoma) was > 100 µM, the TGI (SK-MEL-5 melanoma) was 33.8 µM and the TGI (SK-OV-3 ovarian) was > 100 µM. For the same compound, the TGI (SN12C renal) was 58.7 µM, the TGI (SNB-19 CNS) was > 100 µM and the TGI (SNB-75 CNS) was 70 µM. For the same compound, the TGI (SR leukemia) was 98.5 µM, the TGI (SW-620 colon) was 52.1 µM and the TGI (T-47D breast) was 72.6 µM. The TGI (TK-10 renal) was > 100 µM, the TGI (U251 CNS) was > 100 µM and the TGI (UACC-257 melanoma) was > 100 µM. The TGI (UACC-62 melanoma) was 37.6 µM and the TGI (UO-31 renal) was 36.5 µM.
In the case of `O=c1c2ccccc2[nH]c(=S)n1-c1ccc(N=Nc2cccc3cc(O)ccc23)cc1`, the TGI (786-0 renal) is reported as > 100 µM, the TGI (A549 NSCLC) is reported as > 100 µM and the TGI (ACHN renal) is reported as > 100 µM. The TGI (BT-549 breast) was > 100 µM, the TGI (CAKI-1 renal) was > 100 µM and the TGI (CCRF-CEM leukemia) was > 100 µM. For the same compound, the TGI (COLO 205 colon) was > 100 µM, the TGI (DU-145 prostate) was > 100 µM and the TGI (EKVX NSCLC) was > 100 µM. The TGI (HCC-2998 colon) was > 100 µM, the TGI (HCT-116 colon) was > 100 µM and the TGI (HCT-15 colon) was > 100 µM. For the same compound, the TGI (HL-60(TB) leukemia) was > 100 µM, the TGI (HOP-62 NSCLC) was > 100 µM and the TGI (HOP-92 NSCLC) was > 100 µM. For the same compound, the TGI (HS 578T breast) was > 100 µM, the TGI (HT29 colon) was > 100 µM and the TGI (IGROV1 ovarian) was > 100 µM. For the same compound, the TGI (K-562 leukemia) was > 100 µM, the TGI (KM12 colon) was > 100 µM and the TGI (LOX IMVI melanoma) was > 100 µM. For the same compound, the TGI (M14 melanoma) was > 100 µM, the TGI (MALME-3M melanoma) was > 100 µM and the TGI (MCF7 breast) was > 100 µM. The TGI (MDA-MB-231 breast) was > 100 µM, the TGI (MDA-MB-435) was > 100 µM and the TGI (MDA-N) was > 100 µM. The TGI (MOLT-4 leukemia) was > 100 µM, the TGI (NCI-H226 lung) was > 100 µM and the TGI (NCI-H23 lung) was > 100 µM. For the same compound, the TGI (NCI-H460 lung) was > 100 µM, the TGI (NCI-H522 lung) was > 100 µM and the TGI (NCI/ADR-RES ovarian) was > 100 µM. For the same compound, the TGI (OVCAR-3 ovarian) was > 100 µM, the TGI (OVCAR-4 ovarian) was > 100 µM and the TGI (OVCAR-5 ovarian) was > 100 µM. The TGI (OVCAR-8 ovarian) was > 100 µM, the TGI (PC-3 prostate) was > 100 µM and the TGI (RPMI-8226 leukemia) was > 100 µM. The TGI (RXF 393 renal) was > 100 µM, the TGI (SF-268 CNS) was > 100 µM and the TGI (SF-295 CNS) was > 100 µM. For the same compound, the TGI (SF-539 CNS) was > 100 µM, the TGI (SK-MEL-2 melanoma) was > 100 µM and the TGI (SK-MEL-28 melanoma) was > 100 µM. The TGI (SK-MEL-5 melanoma) was > 100 µM, the TGI (SK-OV-3 ovarian) was > 100 µM and the TGI (SN12C renal) was > 100 µM. For the same compound, the TGI (SNB-19 CNS) was > 100 µM, the TGI (SNB-75 CNS) was > 100 µM and the TGI (SR leukemia) was > 100 µM. For the same compound, the TGI (SW-620 colon) was > 100 µM, the TGI (T-47D breast) was > 100 µM and the TGI (TK-10 renal) was > 100 µM. The TGI (U251 CNS) was > 100 µM, the TGI (UACC-257 melanoma) was > 100 µM and the TGI (UACC-62 melanoma) was > 100 µM. The TGI (UO-31 renal) was > 100 µM.

Source: PubChem BioAssay (NCI)
